The conditions of data set [1]: rabbits; due to high thiols in the blood; cited from earlier work.
A short description of data set [2]: Aqueous stability in buffer at 25 degrees Celsius. The following applies: for aqueous degradation kinetics: buffered aqueous solution, Ionic Strength 0.15M; for half-life: 35 mM Acetate Buffer, Ionic Strength 0.15M (NaCl). The class given is physicochemical. As to the method:
(§1) 1HNMR (300 MHz, DMSO-d6): □ 3.05 (d of d, 1H), 3.25 (d of d, 1H), 3.80 (broad), 4.15 (broad, 1H), 7.45 (t, 2H), 7.55 (t, 1H), 7.80 (d, 2H), 8.40 (broad), 9.60 (s, 1H). FAB+ 241.0 (M+1). […] When a 10 times molar excess of cysteine was added to the above solution, the model prodrug degraded (reverted to yield benzamide) with a half life of ˜20 to 30 minutes. In addition, the above benzamide-cysteine model prodrug had improved aqueous solubility compared to benzamide.
(§2) 1HNMR (300 MHz, CDCl3): □ 1.15 (t, 3H), 3.10 (d of d, 11H), 3.70 (d of d, 11H), 3.95 (m, 2H), 4.70 (m, 1H), 5.05 (d of d, 2H), 6.25 (d, 1H), 7.35 (broad s, 5H), 7.75 (m, 2H), 7.90 (m, 2H). […] When a 10 times molar excess of cysteine was added to the above solution, the model prodrug degraded (reverted to yield phthalimide) instantaneously (kinetics were not measurable).
(§3) ^1HNMR (300 MHz, DMSO-d6): □ 1.15 (t, 3H), 2.85 (d of d, 1H), 3.05 (d of d, 1H), 4.05 (m, 1H), 4.15 (q, 2H), 6.95 (s, 2H), 7.10 (s, 1H), 7.35 (m, 2H), 7.40 (broad s, 6H), 8.40 (broad). FAB+ 384.1 (M+1).

A short description of data set [3]: Aqueous solubility compared to parent compound. The class given is physicochemical. As for the experimental part: as §1, §3
A further data set in a line: physchem. The following applies: soybean oil, oil or lipid.
Data set [4] in a line: Reversion of prodrug to parent on addition of 10 times molar excess of cysteine. The class given is physicochemical. As to the method:
as §1, §2

Where [5] appears, read: within a pH range of 4.0 to 7.0, 25 degrees Celsius, projected by Eyring Plot.

For the compound `O=C1C2CC=CCC2C(=O)N1SC(Cl)(Cl)Cl` (stereo not shown) [Captan, N-trichloromethylthio-4-cyclohexane 1,2-dicarboximide], the “fate of active form in the body” value in data set [1] was “broken down in the body”.

The half-life is how long it takes for the measured level to halve. With `CCOC(=O)C(N)CSNC(=O)N1c2ccccc2C=Cc2ccccc21` (stereo not shown) [Example 16], in data set [2], the aqueous degradation kinetics entry was “Pseudo-first order degradation kinetics were observed”. For the same compound, the half-life in data set [2] (pH 4.0, 25 degrees Celsius, projected by Eyring Plot) was roughly 181 days. Moreover, the “pH of maximum stability” value in data set [2] (setting [5]) came out at 4.0. In addition, the “aqueous solubility compared to parent compound” value in data set [3] is recorded as “greatly improved”.

One may read the solubility as the dissolved amount per volume that the medium holds. Take `CCOC(=O)CCSN(CC1CN(c2ccc(N3CCOCC3)c(F)c2)C(=O)O1)C(C)=O` (stereo not shown) [Example 10]: the solubility in the data set “physchem” was greater than 30 mg/mL.

Broadly, the melting point is the temperature of the solid-liquid transition. As for `CC(=O)N(CC1CN(c2ccc(N3CCOCC3)c(F)c2)C(=O)O1)Sc1ccccc1` (stereo not shown) [Example 11], the melting point was 120.9 °C. The same compound showed a solubility in “physchem” greater than 10 mg/mL.

Regarding `NC(CSNC(=O)c1ccccc1)C(=O)O` (stereo not shown) [Example 13], the aqueous degradation kinetics entry in data set [2] was “Pseudo-first order degradation kinetics were observed”. Also, the “pH of maximum stability” value in data set [2] (setting [5]) is 6.0. The half-life in data set [4] (phosphate buffer with 10 times molar excess of cysteine, 10 times molar excess of cysteine added to the phosphate buffer solution) lay within 0.333 to 0.5 h. The “aqueous solubility compared to parent compound” value in data set [3] is recorded as “improved”.

Consider `CCOC(=O)C(CSN1C(=O)c2ccccc2C1=O)NC(=O)OCc1ccccc1` (stereo not shown) [Example 15], for which the aqueous degradation kinetics result in data set [2] is reported as “did not show pseudo-first order kinetics”. The half-life in data set [2] (pH 3.5, 25 degrees Celsius) lay in the range of 8 to 9 days. Further, the “pH of maximum stability” value in data set [2] (within a pH range of 3.5 to 5.0, 25 degrees Celsius) was determined as 3.5. Also, in data set [4] (10 times molar excess of cysteine added to the acetate buffer solution, kinetics not measurable), the “degradation (reversion to parent) with cysteine” value was “instantaneously”.
